Measured values as given in article PMC7796031, “Studies of Coumarin Derivatives for Constitutive Androstane Receptor (CAR) Activation” (Molecules, 2020).
Where two headings read alike, the source gives them in different places. Each block holds one compound with its values, some of them ahead of it.

Tests used:
[1] = test system: phosphoenopyruvate carboxykinse (PEPCK) mRNA expression; test: PEPCK mRNA expression induced by dexamethasone and 8-bromo-cAMP in H4IIE cells; type: cell-based, rat; details: dexamethasone (500 nM) + 8-bromo-cAMP
Method: S21 Effects of scoparone, 50 (PLH), and 6 on phosphoenopyruvate carboxykinse (PEPCK) mRNA expression induced by dexamethasone and 8-bromo-cAMP.
A quantified result of dexamethasone (500 nM) and 8-bromo-cAMP (100µM) induced PEPCK mRNA expression in the presence or absence of scoparone, 50 (PLH) and 6 at 0.78 µM was shown. Insulin (10 nM) was served as an experimental control. Quantified data was presented as mean ± S.E.M. (n = 4). **P < 0.01 and ***P < 0.001 when compared with induction control (None).
PEPCK mRNA could be induced by dexamethasone and 8-bromo-cAMP after 3hr. The presence of insulin […]
Scoparone, at 0.78 µM, can suppress PEPCK
In contrast, both 50 (PLH) and 6 could also suppress PEPCK
Cell culture: The rat H4IIE cells were cultured in Dulbecco’s Modified Eagle’sMedium (DMEM) containing 1 g/L glucose, 5% (v/v) fetal calf serum (FBS) and 1% (v/v) antibiotics (100 U/mL penicillin and 0.1 g/L streptomycin). Cultured cells were maintained at 37 ◦C in an atmosphere of 5% CO2 and 95% air.
The measurement of PEPCK gene expression: H4IIE cells were seeded into 6 cm dish and allowed for the attachment. After serum starvation overnight, cells were treated with various conditions described in the figure legend. After treatment, total RNA of each treatment was extracted using TRI-reagent according to the manufacturer’s instructions. The pelleted RNA was dissolved in distilled water, quantified with NanoDrop™ 1000 Spectrophotometer (Thermo Fisher Scientific, USA) and stored at −70 ◦C. Total RNA (1µg) was reverse transcribed to generate templates. 50 ng of cDNA was employed for further PCR. The sequences of […]
primers for β-actin: 5’-[…]- 3’ and 5’-[…]-3’ and […]
(1 picture or pasted object on this page, not shown here)

[2] = biological target: T1, Constitutive androstane receptor (CAR) (Homo sapiens, UniProt Q14994); test: In vitro CAR activation screening assay (UGT1A1 promoter gtPBREM-pGL4 luciferase reporter in Hep3B-gtPBREM cells); type: cell-based; details: for activation at 10 µM: (luminescence of compound − luminescence of scoparone)/luminescence of scoparone × 100%, read-out: CAR Activation Fold
T1 construct: The pGL4-gtPBREM plasmid was transfected into Hep3B cells; endogenous in cells
T1 sequence (Q14994 1-352): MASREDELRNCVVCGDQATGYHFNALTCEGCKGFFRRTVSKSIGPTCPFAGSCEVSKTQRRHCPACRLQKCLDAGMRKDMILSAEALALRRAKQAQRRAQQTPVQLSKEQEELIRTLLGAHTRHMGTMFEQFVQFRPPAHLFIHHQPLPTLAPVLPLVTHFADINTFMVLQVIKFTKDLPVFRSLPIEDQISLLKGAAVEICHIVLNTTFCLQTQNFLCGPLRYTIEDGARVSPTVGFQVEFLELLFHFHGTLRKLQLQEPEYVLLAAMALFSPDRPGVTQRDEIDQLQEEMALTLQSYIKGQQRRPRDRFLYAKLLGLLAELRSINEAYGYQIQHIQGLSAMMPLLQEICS
Source text: Until now, there is no commercially available high throughput screening method for CAR activation. Traditionally, CAR activation can be detected in western blots by its downstream signals such as UGT1A1, MRP2 or CYP2B6. […] However, this method was slow and pricy. In order to rapidly screen all the compounds for CAR activation at less cost, an in vitro CAR activation screening assay was developed: DNA was extracted from Hep3B cells and UGT1A1 promoter was obtained using PCR amplification. Ligation between UGT1A1 promoter and pGL4 vector was performed and the plasmid was amplified via E. coli replication. The desired plasmid was extracted from E. coli and transfected into Hep3B. The desired colony bearing UGT1A1 promoter-pGL4 plasmid was selected by neomycin. CAR activation was measured by adding tested compounds to Hep3B for several hours and luminescence was measured. Higher activation will get higher luminescence readout. This assay system was validated with two different CAR agonists: CITCO (direct agonist) and scoparone (an indirect agonist). […] Different concentration of scoparone at 1, 5, 10 and 20 μM had been tested either for luciferase assay or downstream UGT1A1 and MRP2 expression (data not shown) and 10 μM was selected to be the best condition for the following work.
After successfully establishing the in vitro assay, all of the coumarin compounds were subjected to the screening (at 10 μM) and their SAR was discussed. Although the reporter system can successfully identify CAR-activating compounds under 8 h and display better efficiency and sensitivity compared with western blots, it only presented a medium luciferase response. According to previous studies, CITCO was reported to only moderately enhance human CAR (less than 2-fold), compared with the enhance provided by TCPOBOP for murine CAR (5- to 10-fold) in luciferase reporter assays. […] Another possibility for the medium response in our reporter system might be the contribution of the whole gtPBREM element which might include response-suppressive elements that was used and the single nucleotide variation of DR3 element which was reported to slightly reduce the original UGT1A1 activity.
The genomic DNA was isolated from Hep3B cells using Wizard® Genomic DNA Purification Kit (Promega, Fitchburg, WI, USA). The promoter region of UGT1A1 gene, gtPBREM element, was amplified by AccuPrime^TM Taq DNA Polymerase High Fidelity Kit (Invitrogen, MA, USA). The sequence of the amplified element was confirmed by DNA sequencing company and cloned into pGL4 luciferase reporter vector. The pGL4-gtPBREM plasmid was transfected into Hep3B cells. The stable pGL4-gtPBREM transfected Hep3B cells, Hep3B-gtPBREM cells, were established after G418 selection. The luciferase activity represented of CAR activation ability was measured using individual established clone. Further, CAR-shRNA was obtained from the Genomic Research Center and transfected into Hep3B-gtPBREM cells. The transient transfected shCAR-Hep3B-gtPBREM cells were used for further luciferase assays.
The Hep3B-gtPBREM cells and shCAR-Hep3B-gtPBREM cells (1.5 × 10^5 cells/well) were seeded into 12-well plates for overnight then pre-determined concentration compounds were added for desired time. After treatment, transfected cells were washed twice in PBS, lysated with 1× passive lysis buffer and luciferase intensity of equal amount of cell lysate was measured by a Synergy HT Multi-Mode Microplate Reader (BioTek, Winooski, VT, USA).

UGT1A1 = test: Protein expression of UGT1A1 (western blot); type: cell-based, human; details: Figure 2; after scoparone or CITCO treatment
Method: (§1) 1 × 10^6 cells were seeded in a 10 cm plate, incubated at 37 °C for overnight and treated with various concentrations of compounds for the indicated times. After incubation, the culture medium was removed and washed twice with 2 mL ice-cold 1× PBS. Three hundred μL of protein lysis buffer (150 mM NaCl, 50 mM Tris-HCl (pH 7.4), 1% SDS, 1% Triton X-100, 1 mM PMSF) was added into each plate, scraped with a rubber policeman, collected into a premarked microtube and the incubated in ice for 1 h, sonicated by Ultrasonic Cell Disruptor for three time at 5 s each. The cell lysated was cleared by centrifugation at 12,000× g for 15 min at 4 °C. Supernatants were transferred into a fresh marked microtube and stored at −20 °C for future use.
(§2) Protein concentration of each sample was determined using a BCA Protein Assay Kit (Pirece®, Thermo Scientific). Different percentages of SDS-PAGE gels were prepared according to the molecular size of proteins of interest. After complete polymerization of stacking gels, each sample with equal amount of total protein was separated in polyacrylamide gels (stacking gel: 50 v, 60 min; separating gel: 100 v, 60 min). After separating, wet-transfer method was utilized to transfer proteins onto the PVDF membrane. The gels were assembled in the transfer sandwich and put in a transfer tank filled with transfer buffer (25 mM glycine, 0.15% ethanolamine, 20% methanol). The electro-transfer was performed at the voltage of 100 volt for 80 min at 4 °C. After transfer, PVDF-membrane was blocked with 5% BSA in 1× TBS-Tween at room temperature for 1 h. Membrane was washed with 10 mL 1× TBS-Tween three times and incubated with primary antibodies overnight at 4 °C with gentle agitation. After primary antibody was removed, the membrane was washed three times with 10 mL 1× TBS-Tween for 10 min at room temperature with constant shaking. […] The emitted fluorescence from the membrane was caught on a LAS-4000 biomolecule imager (FUJI.).

MRP2 = test: Protein expression of MRP2 (western blot); type: cell-based, human; details: Figure 2; after scoparone or CITCO treatment
Method: Figure 7 The protein expressions of MRP2 after 6,7-diprenoxycoumarin (50) treatment. Hep3B cell (1 × 10^6) were treated with 50 (5, 10, 20 and 40 μM) for 24 h. Treated cell lysates were prepared as described in the Methods section and the expression of MRP2 was analyzed by western blot.
as §1
as §2, with “agitation.” for “agitation. After primary antibody was removed, the membrane was washed three times with 10 mL 1× TBS-Tween for 10 min at room temperature with constant shaking.”

human CAR = test system: human CAR; design: method as in PMID 10757780, PMID 12611900; details: cited from earlier work
[3] = MTT cell cytotoxicity assay of coumarin derivatives; type: cell-based; details: human, Hep 3B cells, 72 h treatment
Method: The colorimetric assay for cellular growth and survivals described by Hansen et al. with modifications. The MTT (3-(4,5-cimethylthiazol-2yl)-2,5-diphenyltetrazolium bromide, Sigma-Aldrich Inc., Germany) assay was utilized to determine the IC50 value of each compound. Cells (5000 cells/well) were seeded into 96-well plates for 24 h and subsequently the cells were treated with vehicle or tested compounds at pre-determined concentration. After 72 h treatment, MTT solution was added to the final concentration of 0.5 mg/mL and continue cultured for 2 h at 37 °C. Afterward, the cells were lysed with lysis buffer (40% DMF and 20% SDS in H2O) overnight at 37 °C to lysate the cells. The absorbance at 570 nm was then detected by a microplate reader and the IC50 value was calculated.

CAR protein = test: Immunofluorescence staining for CAR translocation in Hep3B cells; type: cell-based, human; details: pre-treated with 10 nM okadaic acid, then 50 (10 μM) 2 h
Method: Figure 3 Image of immunofluorescence staining for CAR translocation in Hep3B cells after 6,7-diprenoxycoumarin (50) treatment (A) and scoparone treatment (C). Hep3B cells were treated with 50 (10 μM) for 2 h. The negative control group was pre-treated with 10 nM okadaic acid (OA). The blue and green fluorescence stands for signals of nuclei and CAR protein, respectively. The protein expression of nuclear CAR after 6,7-diprenoxycoumarin (50) treatment for 2 h (B).
Hep3B cells (4 × 10^5) were grown on coverslips for overnight then washed twice with 1× PBS and fixed with 4% paraformaldehyde in 1× PBS for 30 min at room temperature. Cells were then permeabilized with 1× PBS containing 0.1% (v/v) Triton X-100 for 10–15 min and blocked in 1× PBS containing 5% BSA for 1 h at room temperature. CAR antibody (1:200 dilutions) was added and reacted at room temperature for 2 h in 1× PBS containing 5% BSA. FITC-conjugated goat anti-rabbit IgG antibody was added for another 1 h at room temperature. Coverslips were mounted and images were acquired under a fluorescence microscope.

murine CAR = test system: murine CAR; design: method as in PMID 10757780, PMID 12611900; details: cited from earlier work

activation at 10 µM ([2]; Table 1): -5%
Compound: CC(C)=CCOc1cccc2oc(=O)ccc12 [Compound 6]
suppression of PEPCK mRNA induction ([1]; test compounds as printed): less potent

Compound: insulin: Insulin (10 nM) served as an experimental control in the PEPCK assay
suppression of PEPCK mRNA induction ([1]; 10 nM, experimental control): suppress such induction

Compound: Clc1ccc(-c2nc3sccn3c2/C=N/OCc2ccc(Cl)c(Cl)c2)cc1 [CITCO, 6-(4-Chlorophenyl) imidazo [2,1-b] [1, 3] thiazole-5-carbaldehyde O-(3,4-dichlorobenzyl) oxime, reference compound]
protein expression of UGT1A (CAR downstream gene) (UGT1A1): upregulated
protein expression of MRP2 (CAR downstream gene) (MRP2): upregulated
enhancement of human CAR in luciferase reporter assays (human CAR): less than 2 fold
elevation of luciferase activity ([2]; assay validation, direct agonist): about 50%

Compound: CCCCCOc1cc2ccc(=O)oc2cc1OCCCCC [Compound 47, 6,7-Dipentoxycoumarin]
IC50 at 72 h [3]: 31 µM
activation at 10 µM ([2]; Table 2): -10%
melting point: 57 to 59 °C

Compound: C=C1[C@@H](O)[C@@H]2O[C@]3(CC[C@H](/C=C/[C@@H](C)[C@@H]4CC(C)=C[C@@]5(O[C@H](C[C@@](C)(O)C(=O)O)CC[C@H]5O)O4)O3)CC[C@H]2O[C@@H]1[C@@H](O)C[C@H](C)[C@H]1O[C@@]2(CCCCO2)CC[C@H]1C [okadaic acid, reference compound]
CAR translocation activity of 50 after pre-treatment (CAR protein): inhibited

Compound: Clc1cnc(Oc2ccc(Oc3ncc(Cl)cc3Cl)cc2)c(Cl)c1 [TCPOBOP]
enhancement of murine CAR in luciferase reporter assays (murine CAR): 5- to 10 fold
